Results: patent publication US20060069132A1, “Azolecarboxamide herbicides” (priority 2004, published 2006)

Columns and labels:
barnyardgrass [1] = experiment: Test A pre-/postemergence herbicide test; type: in vivo, Echinochloa crus-galli
In short: (§1)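 Greenhouse injury scoring (0–100, complete control = 100) at approximately ten days follows simultaneous pre- and postemergence application. Soil received a directed spray after seeding; seedlings of 2–10 cm at the one- to two-leaf stage were sprayed to runoff.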

large crabgrass [2] = experiment: Test A pre-/postemergence herbicide test; type: in vivo, Digitaria sanguinalis
In short: as §1

giant foxtail [3] = experiment: Test A pre-/postemergence herbicide test; type: in vivo, Setaria faberi
In short: as §1

morningglory [4] = experiment: Test A pre-/postemergence herbicide test; type: in vivo, Ipomoea spp.
In short: as §1

redroot pigweed = experiment: Test A pre-/postemergence herbicide test; type: in vivo, Amaranthus retroflexus
In short: as §1

velvetleaf [5] = experiment: Test A pre-/postemergence herbicide test; type: in vivo, Abutilon theophrasti
In short: as §1

barnyardgrass [6] = experiment: Test B pre-/postemergence herbicide test; type: in vivo, Echinochloa crus-galli; details: for Plant response rating, Barnyardgrass: preemergence; for Barnyardgrass plant response rating: postemergence, visual rating, scale 0 (no effect) to 100 (complete control)
In short: (§2)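 Greenhouse pot assay with simultaneous preemergence (treated seed) and postemergence (2–18 cm seedlings) applications of surfactant-containing, non-phytotoxic solvent formulations. Response scored visually 13–15 days later on a 0–100 scale, 100 meaning complete control.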

Surinam grass = experiment: Test B pre-/postemergence herbicide test; type: in vivo, Urochloa decumbens; details: for Plant response rating, Surinam Grass: preemergence; for Surinam Grass plant response rating: postemergence, visual rating, scale 0 (no effect) to 100 (complete control)
In short: (§3)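 Pre: seeds sown, then sprayed. Post: 1–4-leaf plants (2–18 cm) sprayed at the same time. Paddy: flooded, treated at 2-leaf stage. Formulation: non-phytotoxic solvent with surfactant. Greenhouse 13–15 days; visual 0–100 score relative to controls.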

cocklebur = experiment: Test B pre-/postemergence herbicide test; type: in vivo, Xanthium strumarium; details: for Plant response rating, Cocklebur: preemergence; for Cocklebur plant response rating: postemergence, visual rating, scale 0 (no effect) to 100 (complete control)
In short: as §2

corn = experiment: Test B pre-/postemergence herbicide test; type: in vivo, Zea mays; details: for Plant response rating, Corn: preemergence; for Corn plant response rating: postemergence, visual rating, scale 0 (no effect) to 100 (complete control)
In short: as §3

large crabgrass [7] = experiment: Test B pre-/postemergence herbicide test; type: in vivo, Digitaria sanguinalis; details: for Plant response rating, Crabgrass, Large: preemergence; for Crabgrass, Large plant response rating: postemergence, visual rating, scale 0 (no effect) to 100 (complete control)
In short: as §3

giant foxtail [8] = experiment: Test B pre-/postemergence herbicide test; type: in vivo, Setaria faberi; details: for Plant response rating, Foxtail, Giant: preemergence; for Foxtail, Giant plant response rating: postemergence, visual rating, scale 0 (no effect) to 100 (complete control)
In short: as §3

lambsquarters = experiment: Test B pre-/postemergence herbicide test; type: in vivo, Chenopodium album; details: for Plant response rating, Lambsquarters: preemergence; for Lambsquarters plant response rating: postemergence, visual rating, scale 0 (no effect) to 100 (complete control)
In short: as §3

morningglory [9] = experiment: Test B pre-/postemergence herbicide test; type: in vivo, Ipomoea coccinea; details: for Plant response rating, Morningglory: preemergence; for Morningglory plant response rating: postemergence, visual rating, scale 0 (no effect) to 100 (complete control)
In short: as §2

pigweed = experiment: Test B pre-/postemergence herbicide test; type: in vivo, Amaranthus retroflexus; details: for Plant response rating, Pigweed: preemergence; for Pigweed plant response rating: postemergence, visual rating, scale 0 (no effect) to 100 (complete control)
In short: as §3

rice [10] = experiment: Test B pre-/postemergence herbicide test; type: in vivo, Oryza sativa; details: 500 g ai/ha; visual rating 0-100, 0 no effect, 100 complete control; preemergence
In short: as §3

velvetleaf [11] = experiment: Test B pre-/postemergence herbicide test; type: in vivo, Abutilon theophrasti; details: for Plant response rating, Velvetleaf: preemergence; for Velvetleaf plant response rating: postemergence, visual rating, scale 0 (no effect) to 100 (complete control)
In short: as §3

blackgrass = experiment: Test B postemergence herbicide test; type: in vivo, Alopecurus myosuroides; details: postemergence, visual rating, scale 0 (no effect) to 100 (complete control)
In short: (§4)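 Greenhouse test; postemergence application to plants at 1–4 leaves (2–18 cm); paddy species at 2 leaves; evaluated visually vs controls at 13–15 days; scale 0–100 (100 = complete control).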

wheat = experiment: Test B postemergence herbicide test; type: in vivo, Triticum aestivum; parameters: key to Wheat plant response rating: 0 = no effect, 100 = complete control; details: postemergence, visual rating, scale 0 (no effect) to 100 (complete control)
In short: as §4

wild oat = experiment: Test B postemergence herbicide test; type: in vivo, Avena fatua; details: postemergence, visual rating, scale 0 (no effect) to 100 (complete control)
In short: as §4

rice [12] = experiment: Test B flooded paddy test; type: in vivo, Oryza sativa; details: 1000 g ai/ha, visual rating, scale 0 to 100 (0 no effect, 100 complete control), 13 to 15 days
In short: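 Plants grow to 1- to 4-leaf stage (2–18 cm) for postemergence spraying, or to 2-leaf stage for the paddy test. Formulated compound is applied. Greenhouse holding lasts 13–15 days. Response is scored visually relative to controls, 0 no effect to 100 complete control; a dash means no result.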

[13] = test system: small flower umbrella sedge; experiment: Test B flooded paddy test; type: in vivo, Cyperus difformis; details: 1000 g ai/ha, visual rating, scale 0 to 100 (0 no effect, 100 complete control), 13 to 15 days
In short: as §4

ducksalad = experiment: Test B flooded paddy test; type: in vivo, Heteranthera limosa; details: 1000 g ai/ha, visual rating, scale 0 to 100 (0 no effect, 100 complete control), 13 to 15 days
In short: as §4

barnyardgrass [14] = experiment: Test B flooded paddy test; type: in vivo, Echinochloa crus-galli; details: 1000 g ai/ha, visual rating, scale 0 to 100 (0 no effect, 100 complete control), 13 to 15 days
In short: as §4

[15] = Postemergence, 250 g ai/ha, 0 to 100 scale, 0 no effect, 100 complete control
[16] = Postemergence, 1000 g ai/ha, 0 to 100 scale, 0 no effect, 100 complete control
[17] = Preemergence, 1000 g ai/ha, visual rating, 0 to 100 scale (0 no effect, 100 complete control)
[18] = preemergence, 250 g ai/ha, visual injury, 0 to 100 scale (0 no effect, 100 complete control)
[19] = 500 g ai/ha, visual rating 0-100, 0 no effect, 100 complete control
[20] = 125 g ai/ha, 0 to 100 scale, 0 is no effect, 100 is complete control

Structure (SMILES): CC(C)(C)c1cc(C(=O)Nc2cccc(SC(F)(F)F)c2)n(CCF)n1 [Compound 132]
- Barnyardgrass plant response rating (barnyardgrass [1]; [15]): 20
- Plant response rating, Barnyardgrass (barnyardgrass [1]; [16]): 30
- Barnyardgrass plant response rating (barnyardgrass [1]; [17]): 10
- Barnyardgrass plant response rating (barnyardgrass [1]; [18]): 0
- Crabgrass, Large plant response rating (large crabgrass [2]; [15]): 20
- Plant response rating, Crabgrass, Large (large crabgrass [2]; [16]): 25
- Crabgrass, Large plant response rating (large crabgrass [2]; [17]): 35
- Crabgrass, Large plant response rating (large crabgrass [2]; [18]): 20
- Foxtail, Giant plant response rating (giant foxtail [3]; [15]): 15
- Plant response rating, Foxtail, Giant (giant foxtail [3]; [16]): 20
- Foxtail, Giant plant response rating (giant foxtail [3]; [17]): 40
- Foxtail, Giant plant response rating (giant foxtail [3]; [18]): 25
- Morningglory plant response rating (morningglory [4]; [15]): 10
- Plant response rating, Morningglory (morningglory [4]; [16]): 20
- Morningglory plant response rating (morningglory [4]; [17]): 10
- Morningglory plant response rating (morningglory [4]; [18]): 5
- Pigweed plant response rating (redroot pigweed; [15]): 75
- Plant response rating, Pigweed (redroot pigweed; [16]): 65
- Pigweed plant response rating (redroot pigweed; [17]): 40
- Pigweed plant response rating (redroot pigweed; [18]): 30
- Velvetleaf plant response rating (velvetleaf [5]; [15]): 20
- Plant response rating, Velvetleaf (velvetleaf [5]; [16]): 30
- Velvetleaf plant response rating (velvetleaf [5]; [17]): 20
- Velvetleaf plant response rating (velvetleaf [5]; [18]): 15
- Plant response rating, Barnyardgrass (barnyardgrass [6]; [19]): 50
- Barnyardgrass plant response rating (barnyardgrass [6]; 125 g ai/ha): 50
- Barnyardgrass plant response rating (barnyardgrass [6]; 500 g ai/ha): 60
- Plant response rating, Barnyardgrass (barnyardgrass [6]; [20]): 10
- Plant response rating, Surinam Grass (Surinam grass; [19]): 70
- Surinam Grass plant response rating (Surinam grass; 125 g ai/ha): 40
- Surinam Grass plant response rating (Surinam grass; 500 g ai/ha): 60
- Plant response rating, Surinam Grass (Surinam grass; [20]): 40
- Plant response rating, Cocklebur (cocklebur; [19]): 0
- Cocklebur plant response rating (cocklebur; 125 g ai/ha): 90
- Cocklebur plant response rating (cocklebur; 500 g ai/ha): 90
- Plant response rating, Cocklebur (cocklebur; [20]): 0
- Plant response rating, Corn (corn; [19]): 10
- Corn plant response rating (corn; 125 g ai/ha): 20
- Corn plant response rating (corn; 500 g ai/ha): 20
- Plant response rating, Corn (corn; [20]): 10
- Plant response rating, Crabgrass, Large (large crabgrass [7]; [19]): 100
- Crabgrass, Large plant response rating (large crabgrass [7]; 125 g ai/ha): 30
- Crabgrass, Large plant response rating (large crabgrass [7]; 500 g ai/ha): 40
- Plant response rating, Crabgrass, Large (large crabgrass [7]; [20]): 90
- Plant response rating, Foxtail, Giant (giant foxtail [8]; [19]): 80
- Foxtail, Giant plant response rating (giant foxtail [8]; 125 g ai/ha): 30
- Foxtail, Giant plant response rating (giant foxtail [8]; 500 g ai/ha): 40
- Plant response rating, Foxtail, Giant (giant foxtail [8]; [20]): 30
- Plant response rating, Lambsquarters (lambsquarters; [19]): 90
- Lambsquarters plant response rating (lambsquarters; 125 g ai/ha): 100
- Lambsquarters plant response rating (lambsquarters; 500 g ai/ha): 100
- Plant response rating, Lambsquarters (lambsquarters; [20]): 60
- Plant response rating, Morningglory (morningglory [9]; [19]): 20
- Morningglory plant response rating (morningglory [9]; 125 g ai/ha): 60
- Morningglory plant response rating (morningglory [9]; 500 g ai/ha): 70
- Plant response rating, Morningglory (morningglory [9]; [20]): 10
- Plant response rating, Pigweed (pigweed; [19]): 100
- Pigweed plant response rating (pigweed; 125 g ai/ha): 70
- Pigweed plant response rating (pigweed; 500 g ai/ha): 90
- Plant response rating, Pigweed (pigweed; [20]): 100
- Plant response rating, Rice (rice [10]): 0
- Plant response rating, Velvetleaf (velvetleaf [11]; [19]): 70
- Velvetleaf plant response rating (velvetleaf [11]; 125 g ai/ha): 60
- Velvetleaf plant response rating (velvetleaf [11]; 500 g ai/ha): 60
- Plant response rating, Velvetleaf (velvetleaf [11]; [20]): 30
- Blackgrass plant response rating (blackgrass; 125 g ai/ha): 10
- Blackgrass plant response rating (blackgrass; 500 g ai/ha): 40
- Wheat plant response rating (wheat; 125 g ai/ha): 10
- Wheat plant response rating (wheat; 500 g ai/ha): 20
- Oat, Wild plant response rating (wild oat; 125 g ai/ha): 20
- Oat, Wild plant response rating (wild oat; 500 g ai/ha): 20
- Rice plant response rating (rice [12]): 0
- Sedge, Umbrella plant response rating [13]: 40
- Ducksalad plant response rating (ducksalad): 10
- Barnyardgrass plant response rating (barnyardgrass [14]): 30
